Assay results taken from PMC12136037, “Type II kinase inhibitors that target Parkinson’s disease–associated LRRK2” (Science Advances, 2025).

Legend:
Assay in all cases: DSF 100 kinase selectivity screen;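 also: compound tested at 20 µM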
Format in all cases: binding
[1] = biological target: T1, ~100 representative kinases (Homo sapiens, UniProt P12931); conditions: Protein SRC; DSF; average of three replicates
T1 construct: Recombinant protein kinase domains with a concentration of 2 μM
Method in brief: (§1)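 Each kinase domain, at 2 μM, is mixed with 20 μM test compound and SYPRO Orange in Hepes (20 mM, pH 7.5) with 500 mM NaCl. Temperature is then raised at 3°C/min and fluorescence-monitored unfolding yields the melting temperature change, ΔTm in degrees Celsius.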

[2] = biological target: T2, ~100 representative kinases (Homo sapiens, UniProt Q00532); conditions: Protein CDKL1; average of three replicates
T2 construct: Recombinant protein kinase domains with a concentration of 2 μM
Method in brief: as §1

[3] = biological target: T3, ~100 representative kinases (Homo sapiens, UniProt Q15375); conditions: Protein EPHA7; average of three replicates
T3 construct: Recombinant protein kinase domains with a concentration of 2 μM
T3 sequence (Q15375 28-998): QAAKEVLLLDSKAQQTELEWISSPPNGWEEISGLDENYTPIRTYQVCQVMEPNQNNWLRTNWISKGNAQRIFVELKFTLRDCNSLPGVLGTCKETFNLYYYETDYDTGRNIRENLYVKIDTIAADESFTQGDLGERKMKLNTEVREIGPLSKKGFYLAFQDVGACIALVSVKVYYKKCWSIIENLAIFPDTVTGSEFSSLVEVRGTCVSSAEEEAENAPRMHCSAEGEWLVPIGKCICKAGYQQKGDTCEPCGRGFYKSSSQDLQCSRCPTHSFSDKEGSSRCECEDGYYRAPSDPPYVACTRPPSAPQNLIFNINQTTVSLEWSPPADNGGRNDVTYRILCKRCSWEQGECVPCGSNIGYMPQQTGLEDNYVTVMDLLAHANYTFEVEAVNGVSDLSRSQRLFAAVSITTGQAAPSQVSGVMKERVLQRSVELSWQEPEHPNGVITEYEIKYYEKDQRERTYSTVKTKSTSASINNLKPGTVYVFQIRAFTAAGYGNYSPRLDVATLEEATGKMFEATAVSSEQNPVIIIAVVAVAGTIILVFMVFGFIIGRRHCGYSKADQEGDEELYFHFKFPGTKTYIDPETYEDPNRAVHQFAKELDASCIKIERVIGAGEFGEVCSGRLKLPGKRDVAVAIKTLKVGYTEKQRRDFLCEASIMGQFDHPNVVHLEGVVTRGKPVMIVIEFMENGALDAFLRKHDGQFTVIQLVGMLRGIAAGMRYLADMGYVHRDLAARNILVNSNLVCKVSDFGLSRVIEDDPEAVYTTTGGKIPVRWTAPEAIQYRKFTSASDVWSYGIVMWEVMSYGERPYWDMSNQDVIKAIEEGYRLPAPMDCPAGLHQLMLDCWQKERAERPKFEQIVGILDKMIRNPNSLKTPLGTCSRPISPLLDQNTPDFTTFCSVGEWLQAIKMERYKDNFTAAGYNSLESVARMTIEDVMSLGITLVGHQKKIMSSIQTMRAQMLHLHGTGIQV
Method in brief: as §1

[4] = biological target: T4, ~100 representative kinases (Homo sapiens, UniProt Q16566); conditions: Protein CAMK4; average of three replicates
T4 construct: Recombinant protein kinase domains with a concentration of 2 μM
T4 sequence (Q16566 1-473): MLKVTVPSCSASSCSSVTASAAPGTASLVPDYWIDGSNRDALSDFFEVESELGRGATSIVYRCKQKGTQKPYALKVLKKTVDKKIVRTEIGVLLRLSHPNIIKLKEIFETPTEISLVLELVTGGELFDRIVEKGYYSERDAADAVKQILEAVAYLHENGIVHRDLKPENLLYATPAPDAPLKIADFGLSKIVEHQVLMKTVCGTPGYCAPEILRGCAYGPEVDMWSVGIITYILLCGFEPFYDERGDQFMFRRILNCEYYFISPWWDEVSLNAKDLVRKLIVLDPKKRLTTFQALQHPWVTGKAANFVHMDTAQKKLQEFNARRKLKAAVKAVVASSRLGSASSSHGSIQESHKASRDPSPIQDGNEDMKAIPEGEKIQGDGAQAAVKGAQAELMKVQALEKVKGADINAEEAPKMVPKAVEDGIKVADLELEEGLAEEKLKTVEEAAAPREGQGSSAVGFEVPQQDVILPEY
Method in brief: as §1

[5] = biological target: T5, ~100 representative kinases (Homo sapiens, UniProt Q8TF76); conditions: protein GSG2; average of three replicates
T5 construct: Recombinant protein kinase domains with a concentration of 2 μM
T5 sequence (Q8TF76 1-798): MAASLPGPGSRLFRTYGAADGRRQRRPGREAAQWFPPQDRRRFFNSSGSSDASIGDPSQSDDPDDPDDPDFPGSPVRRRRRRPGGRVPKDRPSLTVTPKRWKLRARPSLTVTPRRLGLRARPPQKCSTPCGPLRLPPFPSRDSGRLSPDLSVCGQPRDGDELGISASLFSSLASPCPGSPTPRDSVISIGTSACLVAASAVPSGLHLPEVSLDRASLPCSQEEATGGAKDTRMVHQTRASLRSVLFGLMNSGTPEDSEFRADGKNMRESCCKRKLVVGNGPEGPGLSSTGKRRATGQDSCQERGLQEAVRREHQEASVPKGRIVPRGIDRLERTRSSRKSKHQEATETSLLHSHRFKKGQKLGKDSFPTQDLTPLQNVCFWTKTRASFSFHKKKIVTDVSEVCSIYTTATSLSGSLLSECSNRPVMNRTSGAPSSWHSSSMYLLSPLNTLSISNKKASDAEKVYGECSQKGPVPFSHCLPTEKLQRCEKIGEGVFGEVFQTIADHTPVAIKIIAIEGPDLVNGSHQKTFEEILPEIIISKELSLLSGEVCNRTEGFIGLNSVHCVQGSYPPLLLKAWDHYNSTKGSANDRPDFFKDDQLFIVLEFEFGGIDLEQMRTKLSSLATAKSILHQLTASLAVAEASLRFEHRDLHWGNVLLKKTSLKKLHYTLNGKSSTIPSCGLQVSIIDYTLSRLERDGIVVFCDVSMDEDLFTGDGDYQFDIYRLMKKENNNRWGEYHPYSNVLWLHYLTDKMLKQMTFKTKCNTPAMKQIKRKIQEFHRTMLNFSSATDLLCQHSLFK
Method in brief: as §1

[6] = biological target: T6, ~100 representative kinases (Homo sapiens, UniProt Q9H2X6); conditions: protein HIPK2; average of three replicates
T6 construct: Recombinant protein kinase domains with a concentration of 2 μM
T6 sequence (Q9H2X6 whole entry, the tested form may be a part): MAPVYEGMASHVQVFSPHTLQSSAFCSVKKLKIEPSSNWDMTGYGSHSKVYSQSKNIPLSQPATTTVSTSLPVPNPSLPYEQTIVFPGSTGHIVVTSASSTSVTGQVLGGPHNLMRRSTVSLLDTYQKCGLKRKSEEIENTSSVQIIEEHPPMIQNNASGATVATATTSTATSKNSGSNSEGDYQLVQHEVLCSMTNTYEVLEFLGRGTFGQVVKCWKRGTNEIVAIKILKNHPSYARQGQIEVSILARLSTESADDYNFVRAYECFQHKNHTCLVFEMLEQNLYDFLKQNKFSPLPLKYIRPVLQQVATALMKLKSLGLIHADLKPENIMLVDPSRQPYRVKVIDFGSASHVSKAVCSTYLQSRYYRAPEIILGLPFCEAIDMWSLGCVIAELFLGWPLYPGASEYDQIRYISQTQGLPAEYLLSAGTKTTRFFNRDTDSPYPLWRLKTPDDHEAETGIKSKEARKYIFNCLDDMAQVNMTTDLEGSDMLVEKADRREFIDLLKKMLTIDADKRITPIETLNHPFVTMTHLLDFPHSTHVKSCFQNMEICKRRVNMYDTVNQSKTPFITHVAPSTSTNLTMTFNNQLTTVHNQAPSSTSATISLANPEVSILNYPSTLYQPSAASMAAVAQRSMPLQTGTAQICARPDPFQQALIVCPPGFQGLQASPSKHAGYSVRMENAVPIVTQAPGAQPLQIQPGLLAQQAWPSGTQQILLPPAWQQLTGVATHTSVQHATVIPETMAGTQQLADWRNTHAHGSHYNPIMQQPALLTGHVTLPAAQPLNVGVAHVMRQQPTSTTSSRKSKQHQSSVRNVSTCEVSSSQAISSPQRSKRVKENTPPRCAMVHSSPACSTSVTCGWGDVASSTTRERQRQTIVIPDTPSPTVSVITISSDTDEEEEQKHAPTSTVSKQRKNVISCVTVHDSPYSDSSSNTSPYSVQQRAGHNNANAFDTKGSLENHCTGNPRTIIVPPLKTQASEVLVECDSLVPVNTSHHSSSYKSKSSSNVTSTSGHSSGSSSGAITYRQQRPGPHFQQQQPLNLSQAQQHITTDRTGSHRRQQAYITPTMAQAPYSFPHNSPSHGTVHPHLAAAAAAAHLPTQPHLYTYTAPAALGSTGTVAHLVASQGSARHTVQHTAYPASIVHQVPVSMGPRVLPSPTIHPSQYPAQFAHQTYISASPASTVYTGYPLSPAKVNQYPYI
Method in brief: as §1

[7] = biological target: T7, ~100 representative kinases (Homo sapiens, UniProt Q9H4A3); conditions: Protein WNK1; DSF; average of three replicates
T7 construct: Recombinant protein kinase domains with a concentration of 2 μM
T7 sequence (Q9H4A3 whole entry, the tested form may be a part): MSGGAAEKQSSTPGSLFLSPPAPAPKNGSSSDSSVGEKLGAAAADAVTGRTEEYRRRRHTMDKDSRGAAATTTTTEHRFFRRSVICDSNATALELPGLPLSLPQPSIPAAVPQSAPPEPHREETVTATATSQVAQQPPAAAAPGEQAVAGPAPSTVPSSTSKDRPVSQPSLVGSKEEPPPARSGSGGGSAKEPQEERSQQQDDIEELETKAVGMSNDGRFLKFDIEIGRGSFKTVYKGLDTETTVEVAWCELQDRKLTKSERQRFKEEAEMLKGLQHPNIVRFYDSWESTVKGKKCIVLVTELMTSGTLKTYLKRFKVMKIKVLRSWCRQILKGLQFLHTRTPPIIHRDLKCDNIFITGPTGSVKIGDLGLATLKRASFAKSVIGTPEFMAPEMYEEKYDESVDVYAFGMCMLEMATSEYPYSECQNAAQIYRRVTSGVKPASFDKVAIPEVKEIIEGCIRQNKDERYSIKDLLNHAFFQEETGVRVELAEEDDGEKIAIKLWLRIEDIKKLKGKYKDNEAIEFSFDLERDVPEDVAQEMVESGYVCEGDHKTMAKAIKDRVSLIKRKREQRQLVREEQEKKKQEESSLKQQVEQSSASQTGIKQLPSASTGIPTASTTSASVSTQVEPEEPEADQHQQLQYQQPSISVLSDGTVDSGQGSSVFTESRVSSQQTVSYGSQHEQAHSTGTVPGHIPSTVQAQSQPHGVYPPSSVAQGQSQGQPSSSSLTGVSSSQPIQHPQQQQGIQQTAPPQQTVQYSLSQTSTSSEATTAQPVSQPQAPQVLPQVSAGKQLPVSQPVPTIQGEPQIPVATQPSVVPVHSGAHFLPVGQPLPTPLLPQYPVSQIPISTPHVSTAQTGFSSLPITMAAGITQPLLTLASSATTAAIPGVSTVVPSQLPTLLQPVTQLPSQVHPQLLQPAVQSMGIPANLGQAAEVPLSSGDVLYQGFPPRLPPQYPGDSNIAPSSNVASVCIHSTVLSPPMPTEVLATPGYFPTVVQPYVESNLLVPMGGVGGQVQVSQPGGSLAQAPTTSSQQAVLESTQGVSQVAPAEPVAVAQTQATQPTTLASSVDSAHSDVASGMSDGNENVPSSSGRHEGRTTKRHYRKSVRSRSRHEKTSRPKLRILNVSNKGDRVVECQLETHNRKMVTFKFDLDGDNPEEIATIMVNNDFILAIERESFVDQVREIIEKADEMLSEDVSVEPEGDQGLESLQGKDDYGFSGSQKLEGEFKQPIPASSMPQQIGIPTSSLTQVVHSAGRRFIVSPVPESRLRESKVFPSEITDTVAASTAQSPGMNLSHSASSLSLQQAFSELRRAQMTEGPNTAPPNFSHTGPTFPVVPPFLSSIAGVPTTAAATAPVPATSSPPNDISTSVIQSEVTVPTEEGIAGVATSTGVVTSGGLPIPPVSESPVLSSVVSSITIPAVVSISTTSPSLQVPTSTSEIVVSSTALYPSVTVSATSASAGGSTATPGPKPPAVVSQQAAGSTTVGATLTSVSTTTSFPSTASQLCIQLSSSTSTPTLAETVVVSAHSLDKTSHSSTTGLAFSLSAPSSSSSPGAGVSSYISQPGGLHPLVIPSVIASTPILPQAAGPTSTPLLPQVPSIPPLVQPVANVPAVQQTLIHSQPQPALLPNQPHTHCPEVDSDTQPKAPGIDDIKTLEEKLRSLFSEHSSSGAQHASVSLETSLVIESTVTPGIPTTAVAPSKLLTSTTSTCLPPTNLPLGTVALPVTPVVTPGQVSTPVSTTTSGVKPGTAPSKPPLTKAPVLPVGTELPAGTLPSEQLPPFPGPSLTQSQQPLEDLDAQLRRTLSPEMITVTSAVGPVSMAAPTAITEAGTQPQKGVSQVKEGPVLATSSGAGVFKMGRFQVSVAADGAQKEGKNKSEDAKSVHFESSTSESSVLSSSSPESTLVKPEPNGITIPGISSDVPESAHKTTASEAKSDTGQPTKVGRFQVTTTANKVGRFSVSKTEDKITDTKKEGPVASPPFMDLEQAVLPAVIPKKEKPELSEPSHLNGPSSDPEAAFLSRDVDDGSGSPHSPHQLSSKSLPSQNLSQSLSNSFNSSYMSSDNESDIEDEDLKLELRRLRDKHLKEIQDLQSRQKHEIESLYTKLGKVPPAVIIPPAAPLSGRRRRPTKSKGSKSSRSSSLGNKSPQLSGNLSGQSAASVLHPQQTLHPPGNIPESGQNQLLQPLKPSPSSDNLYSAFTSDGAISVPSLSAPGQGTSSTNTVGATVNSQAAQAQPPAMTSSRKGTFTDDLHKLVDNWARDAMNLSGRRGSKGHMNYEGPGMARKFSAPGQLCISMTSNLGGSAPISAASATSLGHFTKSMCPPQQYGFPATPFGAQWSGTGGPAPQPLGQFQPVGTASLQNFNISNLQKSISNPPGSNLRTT
Method in brief: as §1

T1 sequence (P12931 whole entry, the tested form may be a part): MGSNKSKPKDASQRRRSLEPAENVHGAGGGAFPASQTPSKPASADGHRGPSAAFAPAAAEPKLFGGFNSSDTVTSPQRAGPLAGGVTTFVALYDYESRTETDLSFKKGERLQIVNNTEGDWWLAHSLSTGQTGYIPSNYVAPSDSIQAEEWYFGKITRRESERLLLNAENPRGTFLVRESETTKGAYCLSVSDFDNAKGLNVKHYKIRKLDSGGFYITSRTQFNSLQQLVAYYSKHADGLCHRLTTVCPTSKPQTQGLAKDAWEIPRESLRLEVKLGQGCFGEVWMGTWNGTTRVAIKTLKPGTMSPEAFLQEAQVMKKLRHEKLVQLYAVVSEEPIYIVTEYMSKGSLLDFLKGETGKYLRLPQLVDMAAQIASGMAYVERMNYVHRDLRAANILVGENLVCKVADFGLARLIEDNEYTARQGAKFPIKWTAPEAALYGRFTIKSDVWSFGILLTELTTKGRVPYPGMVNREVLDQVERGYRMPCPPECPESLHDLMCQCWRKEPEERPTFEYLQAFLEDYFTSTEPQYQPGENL

SMILES	dTm [1]	dTm [2]	dTm [3]	dTm [4]	dTm [5]	dTm [6]	dTm [7]
Cc1ccc(C(=O)Nc2ccc(CN3CCN(C)CC3)c(C(F)(F)F)c2)cc1C#Cc1c[nH]c2ncnc(N3CCOCC3)c12 [Compound 1]	1.15 K	3.12 K	1.10 K	1.39 K	0.98 K	4.31 K	1.39 K
O=C(Nc1ccc(F)cc1)C1(C(=O)Nc2cccc(-c3c[nH]c4ncnc(N5CCOCC5)c34)c2)CC1 [Compound 2]	0.49 K	2.59 K	-1.78 K	2.18 K	-0.43 K	9.65 K	-0.45 K
O=C(Nc1cccc(-c2c[nH]c3ncnc(N4CCOCC4)c23)c1)c1cccn(-c2ccc(F)cc2)c1=O [Compound 4]	1.27 K	5.10 K	-1.83 K	1.59 K	-1.23 K	8.43 K	-0.00745 K
Cc1cc(NC(=O)C2(C(=O)Nc3ccc(F)cc3)CC2)cc(-c2c[nH]c3ncnc(N4CCOCC4)c23)c1 [Compound 6]	0.20 K	0.62 K	1.69 K	1.41 K	-1.48 K	0.87 K	0.73 K
O=C(Nc1cccc(-c2c[nH]c3ncnc(N4CCOCC4)c23)c1)C1(C(=O)Nc2cccc3c2CCC3)CC1 [Compound 11]	2.66 K	3.41 K	1.36 K	2.09 K	-2.96 K	1.82 K	0.35 K
O=C(Nc1ccccc1)C1(C(=O)Nc2cccc(-c3c[nH]c4ncnc(N5CCOCC5)c34)c2)CC1 [Compound 12]	1.12 K	3.09 K	-1.64 K	1.57 K	-0.45 K	7.64 K	-0.065 K
O=C(Nc1ccc(Cl)cc1)C1(C(=O)Nc2cccc(-c3c[nH]c4ncnc(N5CCOCC5)c34)c2)CC1 [Compound 13]	1.70 K	3.38 K	0.19 K	3.78 K	0.82 K	10.73 K	0.30 K
Cc1ccc(NC(=O)C2(C(=O)Nc3cccc(-c4c[nH]c5ncnc(N6CCOCC6)c45)c3)CC2)cc1 [Compound 14]	1.11 K	1.85 K	-1.63 K	1.05 K	-0.69 K	8.21 K	0.16 K
CCc1ccc(NC(=O)C2(C(=O)Nc3cccc(-c4c[nH]c5ncnc(N6CCOCC6)c45)c3)CC2)cc1 [Compound 15]	1.22 K	2.19 K	-2.17 K	2.51 K	-1.97 K	8.10 K	0.33 K
COc1ccc(NC(=O)C2(C(=O)Nc3cccc(-c4c[nH]c5ncnc(N6CCOCC6)c45)c3)CC2)cc1 [Compound 16]	0.65 K	1.33 K	-2.77 K	-0.20 K	-0.39 K	6.00 K	-0.0251 K
O=C(Nc1cccc(-c2c[nH]c3ncnc(N4CCOCC4)c23)c1)C1(C(=O)Nc2ccc(F)c(F)c2)CC1 [Compound 17]	1.01 K	2.59 K	-1.27 K	1.60 K	-3.87 K	9.54 K	0.57 K
O=C(Nc1cccc(-c2c[nH]c3ncnc(N4CCOCC4)c23)c1)C1(C(=O)Nc2ccc(F)c(Cl)c2)CC1 [Compound 18]	1.18 K	3.38 K	0.26 K	3.34 K	-3.25 K	10.76 K	1.16 K
O=C(Nc1cccc(-c2c[nH]c3ncnc(N4CCOCC4)c23)c1)C1(C(=O)Nc2ccc(F)c(Br)c2)CC1 [Compound 19]	-0.25 K	4.06 K	2.85 K	4.72 K	-2.45 K	2.50 K	0.64 K
Cc1cc(NC(=O)C2(C(=O)Nc3cccc(-c4c[nH]c5ncnc(N6CCOCC6)c45)c3)CC2)ccc1F [Compound 20]	1.91 K	5.67 K	-0.92 K	4.77 K	-3.30 K	11.54 K	0.02 K
COc1cc(NC(=O)C2(C(=O)Nc3cccc(-c4c[nH]c5ncnc(N6CCOCC6)c45)c3)CC2)ccc1F [Compound 21]	0.91 K	3.09 K	-1.98 K	2.09 K	-2.20 K	9.11 K	-0.19 K
CC(C)(C)c1cccc(NC(=O)C2(C(=O)Nc3cccc(-c4c[nH]c5ncnc(N6CCOCC6)c45)c3)CC2)c1 [Compound 22]	-0.0179 K	4.95 K	2.40 K	1.51 K	-2.85 K	3.44 K	-1.93 K
O=C(Nc1cccc(-c2c[nH]c3ncnc(N4CCOCC4)c23)c1)C1(C(=O)Nc2ccc(F)cc2F)CC1 [Compound 23]	0.45 K	1.97 K	-2.29 K	0.57 K	-2.84 K	6.30 K	-0.34 K
Cc1cc(F)ccc1NC(=O)C1(C(=O)Nc2cccc(-c3c[nH]c4ncnc(N5CCOCC5)c34)c2)CC1 [Compound 24]	0.70 K	1.46 K	-2.57 K	0.42 K	-2.81 K	4.12 K	-0.0334 K
O=C(Nc1cccc(-c2c[nH]c3ncnc(N4CCOCC4)c23)c1)C1(C(=O)Nc2cc(Br)c(F)cc2F)CC1 [Compound 25]	-0.23 K	1.69 K	2.86 K	1.53 K	-3.43 K	1.71 K	1.20 K
COc1cc2c(Oc3ccc(NC(=O)C4(C(=O)Nc5ccc(F)cc5)CC4)cc3F)ccnc2cc1OCCCN1CCOCC1 [Foretinib, reference compound]	8.21 K	1.22 K	-0.16 K		1.08 K	4.61 K	1.01 K
Cc1ccc(C(=O)Nc2ccc(CN3CCN(C)CC3)c(C(F)(F)F)c2)cc1C#Cc1cnc2cccnn12 [Ponatinib, reference compound]	1.53 K			1.32 K			
CNC(=O)c1cc(Oc2ccc(NC(=O)Nc3cc(C(C)(C)C)nn3-c3ccc4ncccc4c3)c(F)c2)ccn1 [Rebastinib, reference compound]	10.52 K	5.33 K	3.35 K	1.22 K	0.28 K		
CN[C@@H]1C[C@H]2O[C@@](C)([C@@H]1OC)n1c3ccccc3c3c4c(c5c6ccccc6n2c5c31)C(=O)NC4 [Staurosporine]			12.09 K	8.45 K	8.53 K	4.23 K	2.20 K
